PubChem BioAssay (NCI)
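Results reflect a 48-hour exposure of cells in 96-well plates to compound at five concentrations. At the TGI there is no net growth.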

Key:
Test in all cases: NCI anticancer screen, dose series, 48 h
786-0 renal = tested on: 786-0 renal
A498 renal = tested on: A498 renal
A549 NSCLC = tested on: A549 NSCLC
ACHN renal = tested on: ACHN renal
BT-549 breast = tested on: BT-549 breast
CAKI-1 renal = tested on: CAKI-1 renal
COLO 205 colon = tested on: COLO 205 colon
DU-145 prostate = tested on: DU-145 prostate
EKVX NSCLC = tested on: EKVX NSCLC
HCT-116 colon = tested on: HCT-116 colon
HCT-15 colon = tested on: HCT-15 colon
HOP-62 NSCLC = tested on: HOP-62 NSCLC
HS 578T breast = tested on: HS 578T breast
HT29 colon = tested on: HT29 colon
K-562 leukemia = tested on: K-562 leukemia
KM12 colon = tested on: KM12 colon
M14 melanoma = tested on: M14 melanoma
MCF7 breast = tested on: MCF7 breast
MDA-MB-231 breast = tested on: MDA-MB-231 breast
MDA-MB-435 = tested on: MDA-MB-435
MDA-N = tested on: MDA-N
MOLT-4 leukemia = tested on: MOLT-4 leukemia
NCI-H23 lung = tested on: NCI-H23 lung
NCI-H460 lung = tested on: NCI-H460 lung
NCI-H522 lung = tested on: NCI-H522 lung
NCI/ADR-RES ovarian = tested on: NCI/ADR-RES ovarian
OVCAR-3 ovarian = tested on: OVCAR-3 ovarian
OVCAR-4 ovarian = tested on: OVCAR-4 ovarian
OVCAR-5 ovarian = tested on: OVCAR-5 ovarian
OVCAR-8 ovarian = tested on: OVCAR-8 ovarian
PC-3 prostate = tested on: PC-3 prostate
RPMI-8226 leukemia = tested on: RPMI-8226 leukemia
RXF 393 renal = tested on: RXF 393 renal
SF-268 CNS = tested on: SF-268 CNS
SF-295 CNS = tested on: SF-295 CNS
SF-539 CNS = tested on: SF-539 CNS
SK-MEL-2 melanoma = tested on: SK-MEL-2 melanoma
SK-MEL-28 melanoma = tested on: SK-MEL-28 melanoma
SK-MEL-5 melanoma = tested on: SK-MEL-5 melanoma
SK-OV-3 ovarian = tested on: SK-OV-3 ovarian
SN12C renal = tested on: SN12C renal
SNB-19 CNS = tested on: SNB-19 CNS
SNB-75 CNS = tested on: SNB-75 CNS
SW-620 colon = tested on: SW-620 colon
T-47D breast = tested on: T-47D breast
TK-10 renal = tested on: TK-10 renal
U251 CNS = tested on: U251 CNS
UACC-257 melanoma = tested on: UACC-257 melanoma
UACC-62 melanoma = tested on: UACC-62 melanoma
UO-31 renal = tested on: UO-31 renal
CCRF-CEM leukemia = tested on: CCRF-CEM leukemia
HL-60(TB) leukemia = tested on: HL-60(TB) leukemia
IGROV1 ovarian = tested on: IGROV1 ovarian
LOX IMVI melanoma = tested on: LOX IMVI melanoma
NCI-H226 lung = tested on: NCI-H226 lung

Question: Which results are given for `CCOC(=O)C1=COC(C)(CCc2ccccc2)CC1=O` (stereo not drawn)?
Answer: TGI (786-0 renal): > 100 µM; TGI (A498 renal): > 100 µM; TGI (A549 NSCLC): > 100 µM; TGI (ACHN renal): > 100 µM; TGI (BT-549 breast): > 100 µM; TGI (CAKI-1 renal): > 100 µM; TGI (COLO 205 colon): > 100 µM; TGI (DU-145 prostate): > 100 µM; TGI (EKVX NSCLC): > 100 µM; TGI (HCT-116 colon): > 100 µM; TGI (HCT-15 colon): > 100 µM; TGI (HOP-62 NSCLC): > 100 µM; TGI (HS 578T breast): > 100 µM; TGI (HT29 colon): > 100 µM; TGI (K-562 leukemia): > 100 µM; TGI (KM12 colon): > 100 µM; TGI (M14 melanoma): > 100 µM; TGI (MCF7 breast): > 100 µM; TGI (MDA-MB-231 breast): > 100 µM; TGI (MDA-MB-435): > 100 µM; TGI (MDA-N): > 100 µM; TGI (MOLT-4 leukemia): > 100 µM; TGI (NCI-H23 lung): > 100 µM; TGI (NCI-H460 lung): > 100 µM; TGI (NCI-H522 lung): 89.8 µM; TGI (NCI/ADR-RES ovarian): > 100 µM; TGI (OVCAR-3 ovarian): > 100 µM; TGI (OVCAR-4 ovarian): > 100 µM; TGI (OVCAR-5 ovarian): > 100 µM; TGI (OVCAR-8 ovarian): > 100 µM; TGI (PC-3 prostate): > 100 µM; TGI (RPMI-8226 leukemia): > 100 µM; TGI (RXF 393 renal): > 100 µM; TGI (SF-268 CNS): > 100 µM; TGI (SF-295 CNS): > 100 µM; TGI (SF-539 CNS): > 100 µM; TGI (SK-MEL-2 melanoma): > 100 µM; TGI (SK-MEL-28 melanoma): > 100 µM; TGI (SK-MEL-5 melanoma): > 100 µM; TGI (SK-OV-3 ovarian): > 100 µM; TGI (SN12C renal): > 100 µM; TGI (SNB-19 CNS): > 100 µM; TGI (SNB-75 CNS): > 100 µM; TGI (SW-620 colon): > 100 µM; TGI (T-47D breast): > 100 µM; TGI (TK-10 renal): > 100 µM; TGI (U251 CNS): > 100 µM; TGI (UACC-257 melanoma): > 100 µM; TGI (UACC-62 melanoma): > 100 µM; TGI (UO-31 renal): > 100 µM

Question: Which results are given for `Clc1ccc(OCc2nn3c(CCc4nnc5sc(COc6ccc(Cl)cc6)nn45)nnc3s2)cc1`?
Answer: TGI (786-0 renal): > 100 µM; TGI (A498 renal): 42.8 µM; TGI (ACHN renal): 41 µM; TGI (CAKI-1 renal): 12.8 µM; TGI (CCRF-CEM leukemia): > 100 µM; TGI (DU-145 prostate): 44.2 µM; TGI (EKVX NSCLC): > 100 µM; TGI (HCT-116 colon): 85.4 µM; TGI (HCT-15 colon): 95.8 µM; TGI (HL-60(TB) leukemia): 72 µM; TGI (HOP-62 NSCLC): > 100 µM; TGI (HS 578T breast): > 100 µM; TGI (HT29 colon): > 100 µM; TGI (IGROV1 ovarian): 55.1 µM; TGI (K-562 leukemia): > 100 µM; TGI (KM12 colon): 60.2 µM; TGI (LOX IMVI melanoma): > 100 µM; TGI (M14 melanoma): > 100 µM; TGI (MCF7 breast): 92.8 µM; TGI (MDA-MB-231 breast): 61.8 µM; TGI (MDA-MB-435): > 100 µM; TGI (MDA-N): > 100 µM; TGI (MOLT-4 leukemia): > 100 µM; TGI (NCI-H226 lung): > 100 µM; TGI (NCI-H23 lung): 72.1 µM; TGI (NCI-H460 lung): 51.4 µM; TGI (NCI-H522 lung): 30.1 µM; TGI (NCI/ADR-RES ovarian): 37.5 µM; TGI (OVCAR-3 ovarian): 65.8 µM; TGI (OVCAR-4 ovarian): 57.7 µM; TGI (OVCAR-5 ovarian): > 100 µM; TGI (OVCAR-8 ovarian): 35.8 µM; TGI (PC-3 prostate): 53.1 µM; TGI (RPMI-8226 leukemia): > 100 µM; TGI (RXF 393 renal): 61.2 µM; TGI (SF-268 CNS): > 100 µM; TGI (SF-295 CNS): > 100 µM; TGI (SF-539 CNS): > 100 µM; TGI (SK-MEL-2 melanoma): 87.8 µM; TGI (SK-MEL-28 melanoma): > 100 µM; TGI (SK-MEL-5 melanoma): 23.7 µM; TGI (SK-OV-3 ovarian): > 100 µM; TGI (SW-620 colon): > 100 µM; TGI (T-47D breast): > 100 µM; TGI (TK-10 renal): 80.7 µM; TGI (U251 CNS): 54.6 µM; TGI (UACC-257 melanoma): 82.9 µM; TGI (UO-31 renal): 3.03 µM
